Data published in patent EP2186507A2, “A liquid pharmaceutical formulation comprising nicotine for the administration to the oral cavity” (McNeil AB, priority 2001, dated 2003).
Where two headings read alike, the source gives them in different places.

Tests used:
[1] = Description: Absorption of nicotine from the oral cavity to the systemic circulation is dependent on the pH of the saliva and the pKa of nicotine, which is about 7.8. Assuming a pH of the saliva of 6.8 only about 10% of the nicotine in saliva will be in the free base form. Thus, in order to promote absorption of nicotine in a free base form, which is the form predominantly absorbed through the mucosa, the pH of the saliva must be increased. At a pH of 8.8 about 90% of the nicotine in saliva will then be in the free base form.
[2] = Merck Index; cited from earlier work

## CN1CCCC1c1cccnc1 (stereo not drawn) [nicotine, 3-(1-methyl-2-pyrrolidinyl)-pyridine]
[1]; assuming a pH of the saliva of 6.8
  nicotine in saliva in the free base form: about 10%
[1]; at a pH of 8.8
  nicotine in saliva in the free base form: about 90%
[2]
  amount that may kill an adult: Approximately forty
